Measured values reported in patent publication US6124269A, “2-Halo-6-O-substituted ketolide derivatives” (priority 1998, dated 2000).
Converted amounts (≈) assume the structure as drawn.

Columns and labels:
Format in all cases: cell-based
[1] = tested on: Staphylococcus aureus ATCC 6538P; assay: In vitro agar dilution MIC, organism code AA; settings: Table 1B, unit assumed
Summary of the method: (§1)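 Agar dilution on Brain Heart Infusion agar holding twelve successive aqueous dilutions of compound; plates inoculated by replicator with 1:100 culture dilutions (1:10 for slow growers such as Streptococcus). Incubated 35-37° C for 20 to 24 hours. MIC is the lowest concentration giving no growth, slight haze or sparse colonies versus growth control.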

[2] = tested on: Staphylococcus aureus A5177; assay: In vitro agar dilution MIC, organism code BB; settings: Table 1B, in µg/mL (unit assumed)
Summary of the method: as §1

[3] = tested on: Staphylococcus aureus A-5278; assay: In vitro agar dilution MIC, organism code CC; settings: Table 1B, unit assumed
Summary of the method: as §1

[4] = tested on: Staphylococcus aureus CMX 642A; assay: In vitro agar dilution MIC, organism code DD; settings: Table 1B, unit assumed
Summary of the method: as §1

[5] = tested on: Staphylococcus aureus NCTC10649M; assay: In vitro agar dilution MIC, organism code EE; settings: Table 1B, unit assumed
Summary of the method: as §1

[6] = tested on: Staphylococcus aureus CMX 553; assay: In vitro agar dilution MIC, organism code FF; settings: Table 1B, unit assumed
Summary of the method: as §1

[7] = tested on: Staphylococcus aureus 1775; assay: In vitro agar dilution MIC, organism code GG; settings: Table 1B, unit assumed
Summary of the method: as §1

[8] = tested on: Staphylococcus epidermidis 3519; assay: In vitro agar dilution MIC, organism code HH; settings: Table 1B, in µg/mL (unit assumed)
Summary of the method: as §1

[9] = tested on: Enterococcus faecium ATCC 8043; assay: In vitro agar dilution MIC, organism code II; settings: Table 1B, unit assumed
Summary of the method: as §1

[10] = tested on: Streptococcus bovis A-5169; assay: In vitro agar dilution MIC, organism code JJ; settings: Table 1B, unit assumed
Summary of the method: as §1

[11] = tested on: Streptococcus agalactiae CMX 508; assay: In vitro agar dilution MIC, organism code KK; settings: Table 1B, unit assumed
Summary of the method: as §1

[12] = tested on: Streptococcus pyogenes EES61; assay: In vitro agar dilution MIC, organism code LL; settings: Table 1B, unit assumed
Summary of the method: as §1

[13] = tested on: Streptococcus pyogenes 930; assay: In vitro agar dilution MIC, organism code MM; settings: Table 1B, unit assumed
Summary of the method: as §1

[14] = tested on: Streptococcus pyogenes PIU 2548; assay: In vitro agar dilution MIC, organism code NN; settings: Table 1B, unit assumed
Summary of the method: as §1

[15] = tested on: Micrococcus luteus ATCC 9341; assay: In vitro agar dilution MIC, organism code OO; settings: Table 1B, unit assumed
Summary of the method: as §1

[16] = tested on: Micrococcus luteus ATCC 4698; assay: In vitro agar dilution MIC, organism code PP; settings: Table 1B, in µg/mL (unit assumed)
Summary of the method: as §1

Escherichia coli JUHL = assay: In vitro agar dilution MIC, organism code QQ; settings: Table 1B, in µg/mL (unit assumed)
Summary of the method: as §1

Escherichia coli SS = assay: In vitro agar dilution MIC, organism code RR; settings: Table 1B, in µg/mL (unit assumed)
Summary of the method: as §1

Escherichia coli DC-2 = assay: In vitro agar dilution MIC, organism code SS; settings: Table 1B, unit assumed
Summary of the method: as §1

Candida albicans CCH 442 = assay: In vitro agar dilution MIC, organism code TT; settings: Table 1B, unit assumed
Summary of the method: as §1

[17] = tested on: Mycobacterium smegmatis ATCC 114; assay: In vitro agar dilution MIC, organism code UU; settings: Table 1B, in µg/mL (unit assumed)
Summary of the method: as §1

[18] = tested on: Nocardia asteroides ATCC 9970; assay: In vitro agar dilution MIC, organism code VV; settings: Table 1B, in µg/mL (unit assumed)
Summary of the method: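 Test compound serially diluted in Brain Heart Infusion agar across twelve plates; strains applied by Steers replicator at 1:100 dilution (1:10 for slow growers such as Streptococcus). Plates incubated 20 to 24 hours at 35-37° C. MIC taken as lowest concentration giving no growth, slight haze or sparse isolated colonies versus drug-free control.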

[19] = tested on: Haemophilis influenzae DILL AMP R; assay: In vitro agar dilution MIC, organism code WW; settings: Table 1B, unit assumed
Summary of the method: as §1

[20] = tested on: Streptococcus pneumoniae ATCC 6303; assay: In vitro agar dilution MIC, organism code XX; settings: Table 1B, unit assumed
Summary of the method: as §1

[21] = tested on: Streptococcus pneumoniae GYR 1171; assay: In vitro agar dilution MIC, organism code YY; settings: Table 1B, unit assumed
Summary of the method: as §1

[22] = tested on: Streptococcus pneumoniae 5979; assay: In vitro agar dilution MIC, organism code ZZ; settings: Table 1B, unit assumed
Summary of the method: as §1

[23] = tested on: Streptococcus pneumoniae 5649; assay: In vitro agar dilution MIC, organism code ZZA; settings: Table 1B, unit assumed
Summary of the method: as §1

Row | Compound | MIC [1] | MIC [2] | MIC [3] | MIC [4] | MIC [5] | MIC [6] | MIC [7] | MIC [8] | MIC [9] | MIC [10] | MIC [11] | MIC [12] | MIC [13] | MIC [14] | MIC [15] | MIC [16] | MIC (Escherichia coli JUHL) | MIC (Escherichia coli SS) | MIC (Escherichia coli DC-2) | MIC (Candida albicans CCH 442) | also measured
1 | CC[C@H]1OC(=O)[C@@](C)(F)C(=O)[C@H](C)[C@@H](O[C@@H]2O[C@H](C)C[C@H](N(C)C)[C@H]2O)[C@](C)(OC/C=C/c2ccc3ncccc3c2)C[C@@H](C)C(=O)[C@H](C)[C@H]2NC(=O)O[C@@]21C [Example 10] | 0.1 µg/mL (≈ 0.128 µM) | 0.1 | > 100 µg/mL | 0.1 µg/mL (≈ 0.128 µM) | 0.1 µg/mL (≈ 0.128 µM) | 0.1 µg/mL (≈ 0.128 µM) | > 100 µg/mL | 0.2 | 0.05 µg/mL (≈ 0.0638 µM) | 0.01 µg/mL (≈ 0.0128 µM) | 0.05 µg/mL (≈ 0.0638 µM) | 0.02 µg/mL (≈ 0.0255 µM) | 0.39 µg/mL (≈ 0.497 µM) | 0.1 µg/mL (≈ 0.128 µM) | 0.02 µg/mL (≈ 0.0255 µM) | 0.1 | 100 | 0.1 | 100 µg/mL (≈ 128 µM) | > 100 µg/mL | MIC [17]: 0.1; MIC [18]: 0.01; MIC [19]: 2 µg/mL (≈ 2.55 µM); MIC [20]: 0.015 µg/mL (≈ 0.0191 µM); MIC [21]: 0.015 µg/mL (≈ 0.0191 µM); MIC [22]: 0.25 µg/mL (≈ 0.319 µM); MIC [23]: 0.25 µg/mL (≈ 0.319 µM)
2 | CC[C@H]1OC(=O)C(C)(F)C(=O)[C@H](C)[C@@H](O[C@@H]2O[C@H](C)C[C@H](N(C)C)[C@H]2O)[C@](C)(OCC#CC(=O)c2ccc(Cl)nc2)C[C@@H](C)C(=O)[C@H](C)[C@H]2NC(=O)O[C@@]21C (stereo partly drawn) [Example 25] | 0.39 µg/mL (≈ 0.491 µM) | 0.39 | > 100 µg/mL | 0.39 µg/mL (≈ 0.491 µM) | 0.78 µg/mL (≈ 0.982 µM) | 0.39 µg/mL (≈ 0.491 µM) | > 100 µg/mL | 0.39 | 0.2 µg/mL (≈ 0.252 µM) | 0.1 µg/mL (≈ 0.126 µM) | 0.1 µg/mL (≈ 0.126 µM) | 0.1 µg/mL (≈ 0.126 µM) | 6.2 µg/mL (≈ 7.81 µM) | 0.39 µg/mL (≈ 0.491 µM) | 0.2 µg/mL (≈ 0.252 µM) | 0.39 | > 100 | 3.1 | > 100 µg/mL | > 100 µg/mL | MIC [17]: 0.78; MIC [18]: 0.2; MIC [19]: 2 µg/mL (≈ 2.52 µM); MIC [20]: ≤ 0.004 µg/mL; MIC [21]: ≤ 0.004 µg/mL; MIC [22]: 0.06 µg/mL (≈ 0.0755 µM); MIC [23]: 0.06 µg/mL (≈ 0.0755 µM)
